Data as given in PubChem BioAssay (NCI).
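GI50 marks 50% less growth. TGI denotes the concentration required for complete inhibition of growth.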

Legend:
Assay in all cases: NCI tumour cell line growth inhibition, 384-well format; in the data active = GI50 below about 0.43 µM; inactive = the rest
[1] = test system: NCI-H460 NSCLC
[2] = test system: SNB-19 CNS
[3] = test system: K-562 leukemia
[4] = test system: NCI/ADR-RES ovarian
[5] = test system: MOLT-4 leukemia
[6] = test system: HOP-62 NSCLC
[7] = test system: T-47D breast
[8] = test system: MCF7 breast
[9] = test system: RXF 393 renal
[10] = test system: SF-295 CNS
[11] = test system: ACHN renal
[12] = test system: MDA-MB-435 melanoma
[13] = test system: BT-549 breast
[14] = test system: CCRF-CEM leukemia
[15] = test system: UACC-62 melanoma
[16] = test system: COLO 205 colon
[17] = test system: SK-MEL-5 melanoma
[18] = test system: 786-0 renal
[19] = test system: HS 578T breast
[20] = test system: SK-MEL-28 melanoma
[21] = test system: SK-MEL-2 melanoma
[22] = test system: A549 NSCLC
[23] = test system: TK-10 renal
[24] = test system: SNB-75 CNS
[25] = test system: LOX IMVI melanoma
[26] = test system: SN12C renal
[27] = test system: U251 glioblastoma
[28] = test system: NCI-H322M lung
[29] = test system: OVCAR-8 ovarian
[30] = test system: HCC-2998 colon
[31] = test system: HCT-15 colon
[32] = test system: KM12 colon
[33] = test system: DU-145 prostate
[34] = test system: OVCAR-5 ovarian
[35] = test system: CAKI-1 renal
[36] = test system: SF-539 CNS
[37] = test system: EKVX NSCLC
[38] = test system: HCT-116 colon
[39] = test system: NCI-H23 lung
[40] = test system: HOP-92 NSCLC
[41] = test system: MDA-MB-468 breast
[42] = test system: A498 renal
[43] = test system: UACC-257 melanoma
[44] = test system: IGROV1 ovarian
[45] = test system: SW-620 colon
[46] = test system: NCI-H226 lung
[47] = test system: PC-3 prostate
[48] = test system: OVCAR-3 ovarian
[49] = test system: HT29 colon
[50] = test system: M14 melanoma
[51] = test system: SF-268 CNS
[52] = test system: OVCAR-4 ovarian
[53] = test system: NCI-H522 lung
[54] = test system: HL-60(TB) leukemia
[55] = test system: MDA-MB-231 breast
[56] = test system: RPMI-8226 leukemia
[57] = test system: UO-31 renal

Nc1cc(C(F)F)c(-c2nc(N3[C@@H]4CC[C@H]3COC4)nc(N3[C@@H]4CC[C@H]3COC4)n2)cn1
873 nM: TGI [24]
198 nM: TGI [56]
980 nM: TGI [41] | TGI [44]
7620 nM: TGI [53]
2210 nM: TGI [52]
2640 nM: TGI [13]
32200 nM: TGI [12]
9690 nM: TGI [5]
3670 nM: TGI [35]
509 nM: TGI [7]
1580 nM: TGI [9]
> 100000 nM: TGI [1] | TGI [2] | TGI [3] | TGI [4] | TGI [8] | TGI [11] | TGI [16] | TGI [18] | TGI [20] | TGI [22] | TGI [25] | TGI [26] | TGI [27] | TGI [28] | TGI [29] | TGI [30] | TGI [31] | TGI [32] | TGI [33] | TGI [34] | TGI [36] | TGI [38] | TGI [39] | TGI [40] | TGI [43] | TGI [45] | TGI [47] | TGI [48] | TGI [49] | TGI [50] | TGI [51] | TGI [54] | TGI [55]
1930 nM: TGI [10]
3630 nM: TGI [42]
active: GI50 [1] 105 nM | GI50 [5] 158 nM | GI50 [7] 104 nM | GI50 [8] 143 nM | GI50 [9] 198 nM | GI50 [10] 215 nM | GI50 [11] 426 nM | GI50 [13] 261 nM | GI50 [14] 301 nM | GI50 [15] 389 nM | GI50 [16] 368 nM | GI50 [17] 251 nM | GI50 [19] 138 nM | GI50 [22] 338 nM | GI50 [23] 384 nM | GI50 [24] 170 nM | GI50 [26] 347 nM | GI50 [28] 398 nM | GI50 [30] 407 nM | GI50 [31] 419 nM | GI50 [32] 320 nM | GI50 [35] 311 nM | GI50 [37] 345 nM | GI50 [41] 201 nM | GI50 [42] 89.9 nM | GI50 [44] 188 nM | GI50 [46] 196 nM | GI50 [47] 253 nM | GI50 [48] 349 nM | GI50 [50] 358 nM | GI50 [52] 178 nM | GI50 [53] 183 nM | GI50 [55] 338 nM | GI50 [56] 28.7 nM | GI50 [57] 216 nM
9780 nM: TGI [21]
796 nM: TGI [57]
8800 nM: TGI [23]
1530 nM: TGI [17]
687 nM: TGI [19]
12000 nM: TGI [37]
38000 nM: TGI [14]
2840 nM: TGI [46]
7530 nM: TGI [6]
inactive: GI50 [2] 3030 nM | GI50 [3] 523 nM | GI50 [4] 921 nM | GI50 [6] 497 nM | GI50 [12] 499 nM | GI50 [18] 639 nM | GI50 [20] 446 nM | GI50 [21] 2120 nM | GI50 [25] 464 nM | GI50 [27] 769 nM | GI50 [29] 545 nM | GI50 [33] 525 nM | GI50 [34] 718 nM | GI50 [36] 451 nM | GI50 [38] 1440 nM | GI50 [39] 2180 nM | GI50 [40] 560 nM | GI50 [43] 1500 nM | GI50 [45] 1510 nM | GI50 [49] 4210 nM | GI50 [51] 1120 nM | GI50 [54] 2530 nM
5930 nM: TGI [15]
